Laboratory results as given in patent US8058068B2, “Peptide-enhanced transfections” (Life Technologies Corporation, priority 1995, dated 2011).
Ends that are not written are not given here. Sp‑5‑CO = N-terminal spermine conjugate

Tests used:
NIH/3T3 cells = format: cell-based; settings: peak activity
Description: Two versions of the Tat peptide were synthesized: one with the DNA-binding group carboxyspermine on the N-terminus and one without. The core TAT sequence employed was […] [SEQ ID NO:123]. The ability of the TAT peptide and the carboxyspermine-modified TAT peptide to enhance cationic lipid-mediated transfection was tested.
Transfection was performed in NIH/3T3 cells, in 24-well plates. Seeding density was 6×10^4 cells/well. For each condition, the standard PLUS protocol was used (see example 3) for complexing. All complexes were prepared in OptiMEM reduced serum media. Cells were harvested and assayed for β-galactosidase acivity in the soluble extracts by luminescent assay (see example 8). […] A clear enhancement is seen.

K562 cells = format: cell-based, human
Jurkat cells = format: cell-based, human
COS-7 cells = assay: Dendrimer-mediated and Lipofectamine transfection +/- peptides, luciferase assay; format: cell-based; settings: K16NLS (peak 2) 1, Sp-NLSNLS 1.5, NLS 20 μg/well
CHO-K1 cells [1] = assay: Receptor-ligand proteins with Sp-NLSNLS in DNA pre-complexes, lipid transfection, β-galactosidase assay; settings: DNA precomplexed with Sp-NLSNLS and the ligand protein(s)
Description: (§1) In separate experiments, CHO-K1 cells were seeded at 6×10^4 cells/well, and human fibroblasts were seeded at 8×10^4 cells/well in 24-well plates in DMEM supplemented with 10% fetal bovine serum and allowed to grow overnight.

Human fibroblasts [2] = assay: as above
Description: as §1

Human fibroblasts [3] = format: cell-based
NIH3T3 cells = assay: Transfection by polycationic lipid reagents other than DOSPA-DOPE +/- Sp-NLSNLS, b-galactosidase assay; format: cell-based; settings: 24 h
Human fibroblasts [4] = assay: as above; format: cell-based; settings: 24 h
CHO-K1 cells [5] = assay: as above; format: cell-based; settings: 24 h
[6] = Transfection Agent Arg DMER 3 μg/well, chloroquine
[7] = Transfection Agent G7 (EDA) 3 μg/well, chloroquine
[8] = Transfection Agent G9 (EDA) 3 μg/well, chloroquine
[9] = Transfection Agent Lipofectamine 1 μL/well
[10] = Transfection Agent Lys DMER 3 μg/well, chloroquine
[11] = Transfection Agent “COMB BURST” 3 μg/well, chloroquine
[12] = “LIPOFECTIN”, DNA precomplexed with Sp-NLSNLS and the ligand protein(s)
[13] = polycationic lipid with DNA alone

Row | Substance | Enhancement-Fold (DMRIE-C transfections at peak activity) (K562 cells) | Enhancement-Fold (DMRIE-C transfections at peak activity) (Jurkat cells) | RLU (luciferase) (COS-7 cells; [6]) | RLU (luciferase) (COS-7 cells; [7]) | RLU (luciferase) (COS-7 cells; [8]) | RLU (luciferase) (COS-7 cells; [9]) | RLU (luciferase) (COS-7 cells; [10]) | RLU (luciferase) (COS-7 cells; [11]) | further results
1 | CGYGRKKRRQRRRG [TAT] | – | – | – | – | – | – | – | – | ng b-Gal per cm2 (NIH/3T3 cells): 0.1 ng b-Gal per cm2; ng b-Gal per ug Protein (NIH/3T3 cells): 0.00 ng b-Gal per ug Protein
2 | GLFEAIAEFIEGGWEGLIEG [E5, hemagglutinin peptide, modification of FluHa] | 3 Fold | 1.2 Fold | – | – | – | – | – | – | –
3 | GYGPKKKRKVGG [NLS, nuclear localization signal of SV40 large T antigen] | – | – | 84209 RLU | 2749 RLU | 1747 RLU | 224029 RLU | 17689 RLU | 29639 RLU | –
4 | Insulin: receptor-ligand protein | – | – | – | – | – | – | – | – | Peak activity (ng β-gal/cm^2) (CHO-K1 cells [1]; […]): 452 ng β-gal/cm^2; Peak activity (ng β-gal/cm^2) (CHO-K1 cells [1]; “LIPOFECTIN”): 31 ng β-gal/cm^2; Peak activity (ng β-gal/cm^2) (Human fibroblasts [2]; DMRIE-DOPE, DNA precomplexed with Sp-NLSNLS and the ligand protein): 20.7 ng β-gal/cm^2; Peak activity (ng β-gal/cm^2) (Human fibroblasts [2]; [12]): 22.7 ng β-gal/cm^2
5 | K16CGYGPKKKRKVGGGGRGDSP (KKKKKKKKKKKKKKKKGGCGYGPKKKRKVGGKFTIVF) [K16NLSRGD] | 1 Fold | 1 Fold | – | – | – | – | – | – | –
6 | K16GGCGYGPKKKRKVGG [K16NLS (peak 2)] | 1 Fold | 1 Fold | 63307 RLU | 3423 RLU | 2297 RLU | 164105 RLU | 20847 RLU | 28562 RLU | –
7 | Sp-5-CO-GGYGPKKKRKVGGGGYGPKKKRKVGG ({Sp‑5‑CO}-GGYGPKKKRKVGGGGYGPKKKRKVGG) [Sp-NLSNLS, the peptide NLSNLS conjugated to spermine] | – | – | 56548 RLU | 2832 RLU | 1702 RLU | 200447 RLU | 17203 RLU | 23503 RLU | Enhancement levels (β-galactosidase activity) (Human fibroblasts [3]): 5-8 fold
8 | Transferrin: receptor-ligand protein | – | – | – | – | – | – | – | – | Peak activity (ng β-gal/cm^2) (CHO-K1 cells [1]; […]): 433 ng β-gal/cm^2; Peak activity (ng β-gal/cm^2) (CHO-K1 cells [1]; “LIPOFECTIN”): 44 ng β-gal/cm^2; Peak activity (ng β-gal/cm^2) (Human fibroblasts [2]; […], DNA precomplexed with Sp-NLSNLS and the ligand protein(s)): 24.5 ng β-gal/cm^2; Peak activity (ng β-gal/cm^2) (Human fibroblasts [2]; [12]): 30.6 ng β-gal/cm^2
9 | sp-TAT: Tat peptide CGYGRKKRRQRRRG with the DNA-binding group carboxyspermine on the N-terminus (carboxyspermine-CGYGRKKRRQRRRG) | – | – | – | – | – | – | – | – | ng b-Gal per cm2 (NIH/3T3 cells): 0.06 ng b-Gal per cm2; ng b-Gal per ug Protein (NIH/3T3 cells): 0.00 ng b-Gal per ug Protein
10 | tetramethyldioleyl spermine [TMDOS] | – | – | – | – | – | – | – | – | Peak activity, Lipid + SpNLSNLS (NIH3T3 cells; DNA precomplexed to Sp-NLSNLS): 1.3 ng b-gal/cm^2; Peak activity, Lipid alone (NIH3T3 cells; [13]): 0.2 ng b-gal/cm^2; Peak activity, Lipid + SpNLSNLS (Human fibroblasts [4]; DNA precomplexed to Sp-NLSNLS): 0.1 ng b-gal/cm^2; Peak activity, Lipid alone (Human fibroblasts [4]; [13]): 0.01 ng b-gal/cm^2; Peak activity, Lipid + SpNLSNLS (CHO-K1 cells [5]; DNA precomplexed to Sp-NLSNLS): 2.9 ng b-gal/cm^2; Peak activity, Lipid alone (CHO-K1 cells [5]; [13]): 1.4 ng b-gal/cm^2
